The text below walks through data of patent publication US7598382B2, “Aryl substituted imidazoquinolines” (Coley Pharmaceutical Group, Inc., priority 2002, dated 2009).

Structures can show the parent of a compound that is named as a salt. Bounds are passed on as bounds.

For orientation: melting point means the temperature of the solid-liquid transition.

With `CCOCc1nc2c(N)nc3cc(-n4ccnc4)ccc3c2n1CCCOC` [Example 473, 2-Ethoxymethyl-7-(imidazol-1-yl)-1-(3-methoxypropyl)-1H-imidazo[4,5-c]quinolin-4-amine], the melting point was 167.5 to 169 °C. In turn, `CCOCc1nc2c(N)nc3cc(-c4cccnc4)ccc3c2n1CCCCS(=O)(=O)N(C)C` [Example 365, Dimethyl 4-[4-amino-2-ethoxymethyl-7-(pyridin-3-yl)-1H-imidazo[4,5-c]quinolin-1-yl]butane-1-sulfonamide] yielded a melting point of 205 to 206 °C. Take `Nc1nc2cc(-c3ccccc3)ccc2c2c1nc(CC1CC1)n2CCOc1ccccc1` [Example 196, 2-Cyclopropylmethyl-1-(2-phenoxyethyl)-7-phenyl-1H-imidazo[4,5-c]quinolin-4-amine]: the melting point lay in the range of 188 to 189 °C. Then `CCCNC(=O)NCCCCn1c(CCC)nc2c(N)nc3cc(-c4cccnc4)ccc3c21` (hydrate or solvate) [Example 384], with 184 to 185 °C; and `CCOCc1nc2c(N)nc3cc(-c4ccccc4)ccc3c2n1CCCN1CCCC1=O` [Example 205, 1-[3-(4-Amino-2-ethoxymethyl-7-phenyl-1H-imidazo[4,5-c]quinolin-1-yl)propyl]pyrrolidin-2-one], with 199 to 203 °C; and `CCOCc1nc2c(N)nc3cc(-c4ccccc4)ccc3c2n1CC1CCN(C(=O)N2CCOCC2)CC1` [Example 195, 2-Ethoxymethyl-1-{[1-(morpholin-4-ylcarbonyl)piperidin-4-yl]methyl}-7-phenyl-1H-imidazo[4,5-c]quinolin-4-amine], with 208 to 209 °C. In turn, `CCOCc1nc2c(N)nc3cc(-c4ccncc4)ccc3c2n1CC(C)(C)O` [Example 127, 1-[4-Amino-2-ethoxymethyl-7-(pyridin-4-yl)-1H-imidazo[4,5-c]quinolin-1-yl]-2-methylpropan-2-ol] gave a melting point of 220 to 221 °C.

`CCOCc1nc2c(N)nc3cc(-c4ccc(CO)cc4)ccc3c2n1CCCOC` [Example 166, 2-Ethoxymethyl-1-(3-methoxypropyl)-7-(4-hydroxymethylphenyl)-1H-imidazo[4,5-c]quinolin-4-amine] displayed a melting point of 228 to 229 °C. In turn, `CCOCc1nc2c(N)nc3cc(-c4ccc(S(=O)(=O)CC)cc4)ccc3c2n1CCCOC` [Example 172, 7-[(4-Ethanesulfonyl)phenyl]-2-ethoxymethyl-1-(3-methoxypropyl)-1H-imidazo[4,5-c]quinolin-4-amine] came in with a melting point of 156 to 158 °C. On to `CC(C)Cn1cnc2c(N)nc3cc(-c4cccnc4)ccc3c21` [Example 428, 1-(2-Methylpropyl)-7-(pyridin-3-yl)-1H-imidazo[4,5-c]quinolin-4-amine], for which the melting point is 125 °C. Compound `CCOCc1nc2c(N)nc3cc(-c4ccc(CO)cc4)ccc3c2n1CC1COC(C)(C)O1` (stereo not shown) [Example 160, 1-[(2,2-Dimethyl-1,3-dioxolan-4-yl)methyl]-2-ethoxymethyl-7-(4-hydroxymethylphenyl)-1H-imidazo[4,5-c]quinolin-4-amine] returned a melting point of 219 to 220 °C. Then `CCOCc1nc2c(N)nc3cc(-c4ccccc4)ccc3c2n1CCCCS(=O)(=O)N(C)C` [Example 366, Dimethyl 4-[4-amino-2-ethoxymethyl-7-phenyl-1H-imidazo[4,5-c]quinolin-1-yl]butane-1-sulfonamide], with 207 to 208 °C; and `CCOCc1nc2c(N)nc3c(-c4cccc(C(=O)N5CCOCC5)c4)cccc3c2n1CC(C)(C)O` [Example 486, {3-[4-Amino-2-ethoxymethyl-1-(2-hydroxy-2-methylpropyl)-1H-imidazo[4,5-c]quinolin-6-yl]phenyl}morpholin-4-ylmethanone], with 164 to 166 °C; and `CCCOc1ccccc1-c1ccc2c(c1)nc(N)c1nc(COCC)n(CC(C)C)c12` [Example 109, 2-Ethoxymethyl-1-(2-methylpropyl)-7-(2-propoxyphenyl)-1H-imidazo[4,5-c]quinolin-4-amine], with 168 to 169 °C. Then `CCOCc1nc2c(N)nc3cc(-c4cccnc4)ccc3c2n1CCCCNC(=O)NC1CCCC1` [Example 377, N-{4-[4-Amino-2-ethoxymethyl-7-(pyridin-3-yl)-1H-imidazo[4,5-c]quinolin-1-yl]butyl}-N′-cyclopentylurea], with 190 to 192 °C; and `CCCCc1nc2c(N)nc3cc(-c4ccccc4)ccc3c2n1CCCS(C)(=O)=O` [Example 10, 2-Butyl-1-(3-methanesulfonylpropyl)-7-phenyl-1H-imidazo[4,5-c]quinolin-4-amine], with 214 to 216 °C. Then `CCCCCCCCCCCCCCCC(=O)N1CCC(Cn2c(COCC)nc3c(N)nc4cc(-c5cccnc5)ccc4c32)CC1` (hydrate or solvate) [Example 181, 2-Ethoxymethyl-1-[(1-palmitoylpiperidin-4-yl)methyl]-7-(pyridin-3-yl)-1H-imidazo[4,5-c]quinolin-4-amine], with 72 to 75 °C; and `CCOCc1nc2c(N)nc3cc(-c4cccnc4)ccc3c2n1CC1CCN(C(=O)C(C)C)CC1` (hydrate or solvate) [Example 179, 2-Ethoxymethyl-1-[(1-isobutyrylpiperidin-4-yl)methyl]-7-(pyridin-3-yl)-1H-imidazo[4,5-c]quinolin-4-amine], with 130 to 132 °C; and `COCCc1nc2c(N)nc3ccc(-c4cccnc4)cc3c2n1CCCN1CCCC1=O` [Example 188, 1-{3-[4-Amino-2-(2-methoxyethyl)-8-(pyridin-3-yl)-1H-imidazo[4,5-c]quinolin-1-yl]propyl}pyrrolidin-2-one], with 221 to 224 °C.

In turn, `CCOCc1nc2c(N)nc3cc(-c4cccnc4)ccc3c2n1CCCCNC(=O)c1ccc(C(OCCN(C)C)c2ccccc2)cc1` (stereo not shown) [Example 494, N-[4-(4-Amino-2-ethoxymethyl-7-(pyridin-3-yl)imidazo[4,5-c]quinolin-1-yl)butyl]-4-[(2-dimethylaminoethoxy)phenylmethyl]benzamide] had a melting point of 157 to 161 °C. Regarding `CCOCc1nc2c(N)nc3cc(-c4cccnc4)ccc3c2n1CC1CCCCN1` (stereo not shown) (as salt: hydrochloride) [Example 491, 2-Ethoxymethyl-1-(piperidin-2-ylmethyl)-7-(pyridin-3-yl)-1H-imidazo[4,5-c]quinolin-4-amine trihydrochloride], the melting point was above 250 °C. On to `CCOCc1nc2c(N)nc3cc(-c4cccnc4)ccc3c2n1CCCCS(=O)(=O)NCc1ccc(OC)cc1` [Example 367, 4-Methoxybenzyl 4-[4-amino-2-ethoxymethyl-7-(pyridin-3-yl)-1H-imidazo[4,5-c]quinolin-1-yl]butane-1-sulfonamide], for which the melting point lay in the range of 230 to 231.5 °C.

As for `CCOCc1nc2c(N)nc3cc(-c4cccnc4)ccc3c2n1CC1CCN(C(=O)N2CCOCC2)CC1` (hydrate or solvate) [Example 180, 2-Ethoxymethyl-1-{[1-(morpholin-4-ylcarbonyl)piperidin-4-yl]methyl}-7-(pyridin-3-yl)-1H-imidazo[4,5-c]quinolin-4-amine], the melting point lay within 224 to 225 °C. `CCOCc1nc2c(N)nc3cc(-c4cccnc4)ccc3c2n1CC(C)(C)O` [Example 126, 1-[4-Amino-2-ethoxymethyl-7-(pyridin-3-yl)-1H-imidazo[4,5-c]quinolin-1-yl]-2-methylpropan-2-ol] gave a melting point of 197 to 199 °C. Then `CCCc1nc2c(N)nc3ccc(Cc4ccccc4)cc3c2n1CC(C)(C)O` [Example 435, 1-(4-Amino-8-benzyl-2-propyl-1H-imidazo[4,5-c]quinolin-1-yl)-2-methylpropan-2-ol], with 191 to 192 °C; and `CC(C)Cn1cnc2c(N)nc3ccc(-c4ccsc4)cc3c21` [Example 12, 1-Isobutyl-8-(thiophen-3-yl)-1H-imidazo[4,5-c]quinolin-4-amine], with 235 to 236 °C.

`CC(C)(O)Cn1cnc2c(N)nc3cc(Cc4ccccc4)ccc3c21` [Example 431, 1-(4-Amino-7-benzyl-1H-imidazo[4,5-c]quinolin-1-yl)-2-methylpropan-2-ol]: the melting point fell in the range of 228 to 229 °C. Then `CCOCc1nc2c(N)nc3cc(-c4cccnc4)ccc3c2n1CCN1CCCS1(=O)=O` [Example 389, 1-[2-(1,1-Dioxo-1-isothiazolidin-2-yl)ethyl]-2-ethoxymethyl-7-(pyridin-3-yl)-1H-imidazo[4,5-c]quinolin-4-amine], with 244 to 246 °C; and `COc1ccc(-c2ccc3nc(N)c4ncn(CC(C)C)c4c3c2)c(OC)c1` [Example 13, 8-(2,4-Dimethoxyphenyl)-1-isobutyl-1H-imidazo[4,5-c]quinolin-4-amine], with 223 to 227 °C.

`CC(C)(O)Cn1cnc2c(N)nc3ccc(Cc4ccccc4)cc3c21` [Example 434, 1-(4-Amino-8-benzyl-1H-imidazo[4,5-c]quinolin-1-yl)-2-methylpropan-2-ol] had a melting point of 256 to 257 °C. Then `CCOCc1nc2c(N)nc3ccc(CCc4ccccc4)cc3c2n1CC(C)(C)O` [Example 151, 1-(4-Amino-2-ethoxymethyl-8-phenethyl-1H-imidazo[4,5-c]quinolin-1-yl)-2-methylpropan-2-ol], with 175 to 176 °C; and `CCc1nc2c(N)nc3cc(-c4cccnc4)ccc3c2n1CC(C)(C)O` [Example 142, 1-[4-Amino-2-ethyl-7-(pyridin-3-yl)-1H-imidazo[4,5-c]quinolin-1-yl]-2-methylpropan-2-ol], with 245 to 247 °C. Then `CCOCc1nc2c(N)nc3cc(-c4cccnc4)ccc3c2n1CCCCNS(C)(=O)=O` (hydrate or solvate) [Example 375, N-{4-[4-Amino-2-ethoxymethyl-7-(pyridin-3-yl)-1H-imidazo[4,5-c]quinolin-1-yl]butyl}methanesulfonamide], with 186 to 188 °C; and `CCOCc1nc2c(N)nc3cc(-c4ccccc4)ccc3c2n1CC(C)(C)O` [Example 131, 1-(4-Amino-2-ethoxymethyl-7-phenyl-1H-imidazo[4,5-c]quinolin-1-yl)-2-methylpropan-2-ol], with 211 to 212 °C.
